Here are results for five molecules from ChEMBL document CHEMBL3856253, “6'-O-Caffeoyldihydrosyringin isolated from Aster glehni suppresses lipopolysaccharide-induced iNOS, COX-2, TNF-α, IL-1β and IL-6 expression via NF-κB and AP-1 inactivation in RAW 264.7 macrophages” (Bioorg Med Chem Lett, 2016).

SMILES strings stand for the structures. Activity calls are given as the source filed them. The rule behind the calls is not given here.

Data set [1] in a line: (§1) Inhibition of NF-kappaB/AP-1 in mouse RAW264.7 cells assessed as reduction in LPS-induced nitric oxide production incubated for 1 hr followed by stimulation with LPS for 24 hrs by Griess assay. In kind it is cell-based.
Data set [2] in a line: (§2) Inhibition of NF-kappaB/AP-1 in mouse RAW264.7 cells assessed as reduction in LPS-induced PGE2 production incubated for 1 hr followed by stimulation with LPS for 24 hrs by enzyme immuno assay. It is filed as cell-based.
Data set [3] is described as follows: Cytotoxicity against LPS-induced mouse RAW264.7 cells assessed as decrease in cell viability after 24 hrs by MTT assay. In kind it is toxicity. The settings on record: LPS-induced RAW264.7 cells.
Data set [4] concerns RAW264.7. The data set is described as §1. It is filed as cell-based.
The test system of data set [5] is RAW264.7. The description is as §2. It is filed as cell-based.
The species named for data set [6] is Mus musculus. Nature of the data set: Cytotoxicity against LPS-induced mouse RAW264.7 cells assessed as decrease in cell viability up to 50 uM after 24 hrs by MTT assay. It is filed as toxicity, cell-based. The settings on record: raw264.7, 24 h. For orientation: Tetrazolium assays rely on reduction of a dye to a coloured formazan, in cell work by metabolically active cells.

Data set [7] has as its system RAW264.7. In words: Inhibition of NF-kappaB/AP-1 in mouse RAW264.7 cells assessed as reduction in LPS-induced iNOS protein expression incubated for 1 hr followed by stimulation with LPS for 24 hrs by Western blot analysis. In kind it is cell-based.
Data set [8] has as its system RAW264.7. Nature of the data set: Inhibition of NF-kappaB/AP-1 in mouse RAW264.7 cells assessed as reduction in LPS-induced iNOS mRNA level incubated for 4 hrs by SYBR green dye based qRT-PCR analysis. It is filed as cell-based.
The subject of data set [9] is RAW264.7. Nature of the data set: Inhibition of NF-kappaB/AP-1 in mouse RAW264.7 cells assessed as reduction in LPS-induced COX-2 protein expression incubated for 1 hr followed by stimulation with LPS for 24 hrs by Western blot analysis. It is filed as cell-based. A general note: A western blot detects proteins with antibodies after separation by electrophoresis.
For data set [10], the system named is RAW264.7. In words: Inhibition of NF-kappaB/AP-1 in mouse RAW264.7 cells assessed as reduction in LPS-induced COX-2 mRNA level incubated for 4 hrs by SYBR green dye based qRT-PCR analysis. In kind it is cell-based.
In data set [11] the test system is RAW264.7. In words: Inhibition of NF-kappaB/AP-1 in mouse RAW264.7 cells assessed as reduction in LPS-induced TNF-alpha production incubated for 1 hr followed by stimulation with LPS for 24 hrs by enzyme immuno assay. It is filed as cell-based.
In data set [12] the test system is RAW264.7. Nature of the data set: Inhibition of NF-kappaB/AP-1 in mouse RAW264.7 cells assessed as reduction in LPS-induced IL-1beta production incubated for 1 hr followed by stimulation with LPS for 24 hrs by enzyme immuno assay. In kind it is cell-based.
The test system of data set [13] is RAW264.7. In words: Inhibition of NF-kappaB/AP-1 in mouse RAW264.7 cells assessed as reduction in LPS-induced IL-6 production incubated for 1 hr followed by stimulation with LPS for 24 hrs by enzyme immuno assay. It is filed as cell-based.
For data set [14], the system named is RAW264.7. In words: Inhibition of NF-kappaB/AP-1 in mouse RAW264.7 cells assessed as reduction in LPS-induced TNF-alpha mRNA level incubated for 4 hrs by SYBR green dye based qRT-PCR analysis. It is filed as cell-based.
The subject of data set [15] is RAW264.7. In words: Inhibition of NF-kappaB/AP-1 in mouse RAW264.7 cells assessed as reduction in LPS-induced IL-1beta mRNA level incubated for 4 hrs by SYBR green dye based qRT-PCR analysis. It is filed as cell-based. A general note: Real-time PCR tracks product formation cycle by cycle.
Data set [16] relates to RAW264.7. Nature of the data set: Inhibition of NF-kappaB/AP-1 in mouse RAW264.7 cells assessed as reduction in LPS-induced IL-6 mRNA level incubated for 4 hrs by SYBR green dye based qRT-PCR analysis. It is filed as cell-based.
The test system of data set [17] is RAW264.7. Nature of the data set: Inhibition of LPS-induced NF-kappaB (unknown origin) activity expressed in mouse RAW264.7 cells incubated for 1 hr followed by stimulation with LPS for 18 hrs by luciferase reporter gene assay. It is filed as cell-based.
Data set [18] deals with Transcription factor Jun (Homo sapiens) (UniProt P05412). Nature of the data set: Inhibition of LPS-induced AP-1 (unknown origin) activity expressed in mouse RAW264.7 cells incubated for 1 hr followed by stimulation with LPS for 18 hrs by luciferase reporter gene assay. It is filed as cell-based.
For data set [19], the target named is Transcription factor p65 (Mus musculus) (UniProt Q04207). In words: Inhibition of LPS-induced NF-kappaB p65 subunit nuclear translocation in mouse RAW264.7 cells at 50 uM incubated for 1 hr followed by stimulation with LPS for 15 to 45 mins. In kind it is cell-based.
For data set [20] the target is unchanged. In words: Inhibition of LPS-induced NF-kappaB p65 subunit phosphorylation in mouse RAW264.7 cells at 50 uM incubated for 1 hr followed by stimulation with LPS for 15 to 45 mins. In kind it is cell-based.
Data set [21] deals with RAC-alpha serine/threonine-protein kinase (Mus musculus) (UniProt P31750). Nature of the data set: Inhibition of LPS-induced AKT phosphorylation in mouse RAW264.7 cells at 50 uM incubated for 1 hr followed by stimulation with LPS by Western blot analysis. In kind it is cell-based.
The target in data set [22] is Proto-oncogene c-Fos (Mus musculus) (UniProt P01101). In words: Inhibition of LPS-induced AP-1 c-Fos component phosphorylation in nucleus of mouse RAW264.7 cells at 50 uM incubated for 1 hr followed by stimulation with LPS for 15 to 45 mins by Western blot analysis.
Sequence of Proto-oncogene c-Fos (Mus musculus) (P01101 whole entry, looked up): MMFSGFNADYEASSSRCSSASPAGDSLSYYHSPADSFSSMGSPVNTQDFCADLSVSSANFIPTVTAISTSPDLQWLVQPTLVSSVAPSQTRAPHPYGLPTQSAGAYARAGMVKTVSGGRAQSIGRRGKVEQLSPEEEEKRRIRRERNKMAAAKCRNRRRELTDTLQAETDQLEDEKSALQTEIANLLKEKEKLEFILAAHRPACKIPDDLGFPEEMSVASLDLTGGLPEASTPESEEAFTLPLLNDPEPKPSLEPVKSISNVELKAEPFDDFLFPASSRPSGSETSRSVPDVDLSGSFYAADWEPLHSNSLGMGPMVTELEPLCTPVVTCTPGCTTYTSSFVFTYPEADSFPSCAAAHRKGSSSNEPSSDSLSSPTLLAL

Sequence of Transcription factor p65 (Mus musculus) (Q04207 whole entry): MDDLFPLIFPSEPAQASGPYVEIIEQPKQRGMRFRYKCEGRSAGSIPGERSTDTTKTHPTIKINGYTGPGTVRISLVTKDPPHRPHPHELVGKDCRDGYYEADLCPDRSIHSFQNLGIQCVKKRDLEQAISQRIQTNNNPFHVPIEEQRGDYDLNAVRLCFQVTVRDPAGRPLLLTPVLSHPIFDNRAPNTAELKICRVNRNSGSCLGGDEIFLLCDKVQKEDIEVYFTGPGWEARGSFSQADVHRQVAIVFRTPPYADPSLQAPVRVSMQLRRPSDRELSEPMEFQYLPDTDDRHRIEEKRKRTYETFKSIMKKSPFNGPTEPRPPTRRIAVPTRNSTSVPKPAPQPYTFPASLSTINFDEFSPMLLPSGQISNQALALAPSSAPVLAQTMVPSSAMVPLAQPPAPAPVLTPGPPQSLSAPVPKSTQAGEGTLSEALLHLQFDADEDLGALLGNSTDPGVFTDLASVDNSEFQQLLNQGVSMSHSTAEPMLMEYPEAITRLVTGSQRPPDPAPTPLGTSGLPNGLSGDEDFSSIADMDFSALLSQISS
Sequence of Transcription factor Jun (Homo sapiens) (P05412 whole entry): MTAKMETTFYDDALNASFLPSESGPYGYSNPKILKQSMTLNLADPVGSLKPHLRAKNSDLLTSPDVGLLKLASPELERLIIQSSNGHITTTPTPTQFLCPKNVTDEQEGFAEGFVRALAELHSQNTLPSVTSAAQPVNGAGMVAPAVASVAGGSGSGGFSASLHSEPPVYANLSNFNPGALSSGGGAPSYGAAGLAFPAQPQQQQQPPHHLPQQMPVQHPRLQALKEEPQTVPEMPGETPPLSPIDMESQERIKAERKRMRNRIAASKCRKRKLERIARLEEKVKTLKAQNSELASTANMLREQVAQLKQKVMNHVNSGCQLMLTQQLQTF
Sequence of RAC-alpha serine/threonine-protein kinase (Mus musculus) (P31750 whole entry): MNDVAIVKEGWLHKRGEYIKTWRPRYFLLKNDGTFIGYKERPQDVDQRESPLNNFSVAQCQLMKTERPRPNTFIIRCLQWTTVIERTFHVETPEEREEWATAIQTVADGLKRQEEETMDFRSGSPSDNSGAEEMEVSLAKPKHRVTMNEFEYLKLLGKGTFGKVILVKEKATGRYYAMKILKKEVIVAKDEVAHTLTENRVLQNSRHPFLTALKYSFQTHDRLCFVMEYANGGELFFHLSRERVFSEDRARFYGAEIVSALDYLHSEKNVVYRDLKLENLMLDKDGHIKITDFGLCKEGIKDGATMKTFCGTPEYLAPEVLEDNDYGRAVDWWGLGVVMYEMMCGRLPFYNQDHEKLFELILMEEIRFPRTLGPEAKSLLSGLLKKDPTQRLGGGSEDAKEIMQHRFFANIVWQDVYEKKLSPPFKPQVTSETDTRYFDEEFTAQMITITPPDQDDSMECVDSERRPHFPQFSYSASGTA

As to `CC1=CC(=O)CC(C)(C)[C@@]1(O)/C=C/[C@@H](C)O[C@@H]1O[C@H](COC(=O)/C=C/c2ccc(O)c(O)c2)[C@@H](O)[C@H](O)[C@H]1O`, the IC50 in data set [1] and in data set [2] was greater than 50 µM each time. In data set [3], the concentration for an effect of 80% (IC80) at 24 h was determined as 67.8 µM.

As to `C[C@H](/C=C/[C@@]1(O)[C@H](C)CC(=O)CC1(C)C)O[C@@H]1O[C@H](COC(=O)/C=C/c2ccc(O)c(O)c2)[C@@H](O)[C@H](O)[C@H]1O`, the half-inhibitory concentration (IC50) in [1] and in [2] was greater than 50 µM throughout. In addition, the 80% effect concentration (IC80) at 24 h in data set [3] was greater than 100 µM.

`COc1cc(CCCO)cc(OC)c1O[C@@H]1O[C@H](COC(=O)/C=C/c2ccc(O)c(O)c2)[C@@H](O)[C@H](O)[C@H]1O`: the IC50 in data set [1] was 43.6 µM; in [2], 48.3 µM. The inhibition entry in [4], in [5], in [7], in data set [8], in data set [9] and in data set [10] was “Dose-dependent effect” each time. The inhibition result in data set [17] and in data set [18] was “Dose-dependent effect” each time. Also, the concentration for an effect of 80% (IC80) at 24 h in data set [3] worked out at 67.6 µM. In addition, the Activity result in data set [6] is given as “Non-Toxic”. In addition, the inhibition entry in data set [11], in [12], in data set [13], in [14], in data set [15] and in data set [16] was “Active” throughout. Further, the inhibition result in data set [19], in [20], in data set [21] and in data set [22] was “Active” in each case.

`C/C(=C\CO)CO[C@@H]1O[C@H](COC(=O)/C=C/c2ccc(O)c(O)c2)[C@@H](O)[C@H](O)[C@H]1O`: the half-maximal inhibitory concentration (IC50) in [1] is 31.5 µM; in data set [2], greater than 50 µM. Besides, the IC80 at 24 h in data set [3] was greater than 100 µM.

On to `CC(=O)/C=C/C1=C(C)[C@@H](O)[C@@H](O[C@@H]2O[C@H](COC(=O)/C=C/c3ccc(O)c(O)c3)[C@@H](O)[C@H](O)[C@H]2O)CC1(C)C`, for which the IC50 in [1] and in data set [2] was greater than 50 µM each time. Also, the concentration for an effect of 80% (IC80) at 24 h in data set [3] was greater than 100 µM.

By IC50 is commonly meant the concentration that gives 50% inhibition. The IC80 is the concentration needed for an effect of 80%.
